Assay results from the supplement of paper PMC10307832.

Columns and labels:
Assay in all cases: relative viability (nuclei count vs DMSO), 5 days (fraction); higher = more cells survive
EHT 1864 = compound: C1COCCN1CC2=CC(=O)C(=CO2)OCCCCCSC3=C4C=CC(=CC4=NC=C3)C(F)(F)F [EHT 1864]
In short: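 Following overnight incubation at 37 °C, lung cancer cell lines in 1536-well plates were pinned with five library-drug doses (not always all listed) in √10 steps on vehicle-anchored plates. The cells then spent 5 days without medium change before a combined fix, permeabilisation and Hoechst stain, 4× imaging and MetaXpress nuclear counts. Viability is the treated-to-vehicle ratio of nuclei, taken as the median across plates. Only plates with control CV below 25% and at least one doubling passed.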

EHT 1864 + Trametinib = compound: C1COCCN1CC2=CC(=O)C(=CO2)OCCCCCSC3=C4C=CC(=CC4=NC=C3)C(F)(F)F [EHT 1864] + CC(=O)Nc1cccc(-n2c(=O)n(C3CC3)c(=O)c3c(Nc4ccc(I)cc4F)n(C)c(=O)c(C)c32)c1 [Trametinib] (partner 0.02 µM)
In short: (§1)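 Relative viability was taken as the ratio of nuclei in treated wells to nuclei in vehicle wells. Lung cancer cell lines in 1536-well plates received compounds by pin tool one day after seeding, either one drug alone or a fixed anchor-drug dose plus five library-drug doses (not always all listed) in √10 steps. Nuclei were counted on 4× images after 5 days of treatment, and values are medians of duplicate plates.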

EHT 1864 + OSI-027 = compound: C1COCCN1CC2=CC(=O)C(=CO2)OCCCCCSC3=C4C=CC(=CC4=NC=C3)C(F)(F)F [EHT 1864] + COc1cccc2cc(-c3nc([C@H]4CC[C@H](C(=O)O)CC4)n4ncnc(N)c34)[nH]c12 [OSI-027] (partner 0.5 µM)
In short: as §1

EHT 1864 + Phenformin = compound: C1COCCN1CC2=CC(=O)C(=CO2)OCCCCCSC3=C4C=CC(=CC4=NC=C3)C(F)(F)F [EHT 1864] + N=C(N)NC(=N)NCCc1ccccc1 [Phenformin] (partner 250 µM)
In short: as §1

Cell Line	relative viability (EHT 1864; 0.04 µM)	relative viability (EHT 1864; 0.1265 µM)	relative viability (EHT 1864; 0.4 µM)	relative viability (EHT 1864; 1.265 µM)	relative viability (EHT 1864; 4 µM)	relative viability (EHT 1864 + Trametinib; first compound 0.04 µM)	relative viability (EHT 1864 + Trametinib; first compound 0.1265 µM)	relative viability (EHT 1864 + Trametinib; first compound 1.265 µM)	relative viability (EHT 1864 + Trametinib; first compound 4 µM)	relative viability (EHT 1864 + OSI-027; first compound 0.04 µM)	relative viability (EHT 1864 + OSI-027; first compound 0.1265 µM)	relative viability (EHT 1864 + OSI-027; first compound 0.4 µM)	relative viability (EHT 1864 + OSI-027; first compound 1.265 µM)	relative viability (EHT 1864 + OSI-027; first compound 4 µM)	relative viability (EHT 1864 + Phenformin; first compound 0.04 µM)	relative viability (EHT 1864 + Phenformin; first compound 0.1265 µM)	relative viability (EHT 1864 + Phenformin; first compound 0.4 µM)	relative viability (EHT 1864 + Phenformin; first compound 1.265 µM)	relative viability (EHT 1864 + Phenformin; first compound 4 µM)	relative viability (EHT 1864 + Trametinib; first compound 0.4 µM)
H3255	0.903	0.82	0.963	0.946	1.01	0.561	0.527	0.65	0.67	0.552	0.582	0.603	0.602	0.616	0.383	0.394	0.424	0.36	0.399	–
HARA	0.962	0.782	1.1	1.14	1.05	0.729	–	0.782	1.14	0.433	0.201	0.516	0.454	0.435	0.396	0.483	0.466	0.351	0.416	0.908
HCC-15	1.03	–	0.976	0.941	1	0.404	–	0.362	0.41	0.608	–	0.704	0.66	0.615	0.491	–	0.461	0.383	0.52	0.362
HCC-44	0.987	0.867	0.97	0.935	0.974	1.08	0.977	0.967	1.11	0.573	0.383	0.525	0.522	0.575	0.193	0.13	0.203	0.218	0.221	0.961
